The test system of one assay is PDK4 and UCP-3 promoters. Nature of the assay: ChIP of PGC-1α promoter occupancy in C2C12 myotubes. It is filed as cell-based. The following applies: 1 μM, 48 h. As to the method: Chromatin Immunoprecipitation (ChIP). ChIP was performed according to (Bai et al., 2007). FLAG-HA-PGC-1 (Rodgers et al., 2005) was introduced by adenoviral transfer into C2C12 myotubes after 48 h of differentiation and cells were cultured for an additional 2 days. […] Thereafter ChIP was performed using anti-FLAG (Sigma) and anti-TNF-R1 (Santa Cruz) as described (Bai et al., 2007). Pelleted DNA was quantified by qPCR using the primers against PDK4 and UCP-3 promoters flanking the nuclear receptor site (Table 3 and 6). The results were normalized for the signal of the respective inputs (vehicle/PJ34-treated) and were expressed as a percentage. The signal of anti-TNF-R1 (non-specific antibody) was subtracted from the anti-FLAG signal (specific) and the specific signal was plotted. Primers for ChIP are summarized in Supplementary Table 3 and 6.

The next assay concerns C. elegans. Nature of the assay: Worm lifespan analysis. The settings on record: for variation compared to control (%): vs N2 + water. It is filed as in vivo. On the procedure: Worm Lifespan Analysis Lifespan tests were performed as described in Mouchiroud et al (L. Mouchiroud et al., Pyruvate imbalance mediates metabolic reprogramming and mimics lifespan extension by dietary restriction in Caenorhabditis elegans. Aging Cell 10, 39 (2011)). Briefly, 60-100 animals were used per conditions and scored every other day. All lifespan experiments were performed at 20° C. […] Animals were exposed to compounds during the full life from eggs until death. To ensure a permanent exposure to the compound, plates were changed twice a week. All the compounds used in this study were dissolved in a water stock solution.

For a further assay, the system named is HEK293T cells. Nature of the assay: Nampt, PARP activity, glycolysis and ATP in NR-treated HEK293T cells. It is filed as cell-based, human. As to the method: (§1) mRNA and mtDNA Analysis. Total RNA was prepared using TRIzol (Invitrogen) according to the manufacturer's instructions. RNA was treated with DNase, and 2 μg of RNA was used for reverse transcription (RT). cDNA was purified on QIAquick PCR cleanup columns (Qiagen, Valencia, Calif., USA). 50× diluted cDNA was used for RT-quantitative PCR (RT-VCR) VCR) reactions (Bai et al., 2007). The RT-qPCR reactions were performed using the Light-Cycler system (Roche Applied Science) and a qPCR Supermix (Qiagen) with the primers for mice summarized in Table 1 and 4, and with the primers for worms summarized on Table 7. mtDNA quantification was performed as described (Lagouge et al., 2006) with the primers indicated in Table 2 and 5.
Immunoprecipitation, SDS-PAGE, Western Blotting. […] Reactions were developed by enhanced chemiluminescence (Amersham, Little Chalfont, UK), PGC-1α, FOXO1 and Ndufa9 acetylation levels were analyzed by immunoprecipitation from cellular or nuclear lysates of tissues with anti-PGC-1α (Millipore), anti-FOXO1 (Cell Signaling, Danvers, Mass., USA) and anti-Ndufa9 (Abcam) antibody followed by Western blot using an acetyl-lysine antibody (Cell Signaling) that was normalized to total PGC-1a/FOXO1/Ndufa9 levels (Lagouge et al., 2006; Rodgers et al., 2005). […] All blots were quantified by densitometry using ImageJ software. […]

The test system of another assay is C57Bl/6J mice. Nature of the assay: Sirtuin activity and mitochondrial biogenesis in tissues after chronic NR feeding. It is filed as in vivo. On the procedure:
as §1
Immunoprecipitation, SDS-PAGE, Western Blotting. Cells were lysed in lysis buffer (50 mM Tris, […], EDTA 1 mM, NP40 1%, nicotinamide 5 mM, Na-butyrate 1 in M, protease inhibitors pH7.4). Proteins were separated by SDS-PAGE and transferred onto nitrocellulose membranes. The origin of the primary and secondary antibodies used can be found as supplemental experimental procedures. Reactions were developed by enhanced chemiluminescence (Amersham, Little Chalfont, UK), PGC-1α, FOXO1 and Ndufa9 acetylation levels were analyzed by immunoprecipitation from cellular or nuclear lysates of tissues with anti-PGC-1α (Millipore), anti-FOXO1 (Cell Signaling, Danvers, Mass., USA) and anti-Ndufa9 (Abcam) antibody followed by Western blot using an acetyl-lysine antibody (Cell Signaling) that was normalized to total PGC-1a/FOXO1/Ndufa9 levels (Lagouge et al., 2006; Rodgers et al., 2005). In HEK293T cells HA-tagged PGC-1α was overexpressed and was immunoprecipitated using an anti-HA. In C2C12 myotubes, FLAG-HA tagged PGC-1α was introduced through adenoviral delivery 2 days before treatments, then IP was performed using anti-FLAG antibody and samples were processed as described. All blots were quantified by densitometry using ImageJ software. Poly(ADP-Ribose) detection was performed as previously described with slight modifications (Bai et al., PARP-1 inhibition increases mitochondrial metabolism through SIRT1 activation. Cell Metab 13, 461-468. (2011)) Briefly, PAR was detected by using a monoclonal anti-PAR antibody (Alexis, Lausanne Switzerland) by Western blotting of total protein lysates, using either […] of total worm protein lysates, […] of liver protein lysate or 200 g of muscle total protein extracts. PGC-1 acetylation was determined using PGC-1 immunoprecipitates from 2 mg of protein extracts, as described in Canto et al. (Canto et al., AMPK regulates energy expenditure by modulating NAD+ metabolism and SIRT1 activity. Nature 458, 1056 (2009)).
Mitochondrial DNA Measurement The assay was performed as described (Lagouge et al., 2006). DNA. was extracted using the standard proteinase K digestion following phenol-chloroform extraction. Mitochondrial and genomic DNA was determined using specific primers in qPCR reactions (primers summarized in Table 2 and 5.) and was expressed as percentage of WT.
Determination of Protein Acetylation Status PGC-1α, FOXO1 and Ndufa9 acetylation was analyzed by immunoprecipitation of PGC-1, FOXO1 and Nduf9a from nuclear lysates of tissues with anti-PGC-1α (Millipore), anti-FOXO1 (1 mg, Cell Signaling, Danvers, Mass., USA), or Ndufa9 (Abeam) antibody followed by Western blot using an acetyl-lysine antibody (Cell Signaling) that was normalized to total PGC-1α/FOXO1/Ndufa9 (Canto et al., 2009). Tribulin acetylation was assessed by Western blotting of total protein samples by acetylated tubulin-specific antibody (Sigma) that was then normalized for total tubrilin (Santa Cruz).

Each structure is given as a SMILES string. Several values for one entry are separate records, joined by “and”; a condition that tells them apart may be missing. Equal entries are not always repeated. Entries after “also recorded” stand apart in the source; their conditions may differ.

On to `CN(C)CC(=O)Nc1ccc2[nH]c(=O)c3ccccc3c2c1` [PJ34], for which, in the assay with PDK4 and UCP-3 promoters, the “PGC-1 binding to the UCP3 promoter” value was “not regulated through the binding of PGC-1 to its promoter” and the “PGC-1α recruitment to the PDK4 promoter” value is given as “increased PGC-1α recruitment to target-genes”.
Consider `NC(=O)c1ccc[n+]([C@@H]2O[C@H](CO)[C@@H](O)[C@H]2O)c1` [NR, nicotinamide riboside], for which, in the assay with C. elegans (N2, 200 nM), the “mean lifespan ± SE” value amounted to 21.1 ± 0.88 days and the “variation compared to control (%)” value is on record as “+17.9%”. In addition, in the assay on C. elegans (N2, 500 nM), the “mean lifespan ± SE” value was 23.5 ± 0.56 days and 24.9 ± 0.68 days and 20.6 ± 1.02 days. In the assay with C. elegans (N2, 1000 nM), the “mean lifespan ± SE” value worked out at 20.0 ± 0.89 days and the “variation compared to control (%)” value is “+11.7%”. In the assay on C. elegans (daf-16(mu86) mutant worms), the “lifespan in daf-16 mutant worms” value is given as “completely abolished; also recorded: daf-16-dependent”. Also, in the assay with C. elegans (daf-16(mu86), 500 nM), the “mean lifespan ± SE” value was determined as 19.1 ± 0.51 days and the “variation compared to control (%)” value is −7.8%. For the same compound, the “lifespan in sir-2.1(ok434) mutant / sir-2.1 dependence” value with C. elegans (sir-2.1(ok434) mutant worms) is “sir-2.1-dependent fashion; also recorded: sir-2-dependent manner”. In addition, in the assay with C. elegans (sir-2.1(ok434), 500 nM), the “mean lifespan ± SE” value came out at 23.2 ± 0.61 days and the “variation compared to control (%)” value is listed as “+12.0%”. In addition, the lifespan entry with C. elegans (wild type N2 worms) is on record as “extended lifespan; also recorded: increases”. Moreover, the “cellular glycolytic rates or ATP levels” value in the assay with HEK293T cells is given as “not linked to changes in cellular glycolytic rates or ATP levels”. The “Nampt mRNA or protein content” value in the assay with HEK293T cells (0.5 mM, 24 hrs) is on record as “could not see any change”. Further, in the assay with C57Bl/6J mice (HFD 16 weeks), the “expression of oxidative metabolism regulators and mitochondrial genes in quadriceps muscle” value is on record as “either an elevated expression or a strong tendency towards an increase”; the “mitochondrial DNA content in muscle” value is recorded as “increased in muscle”; the “mitochondrial proteins (Complex V ATP synthase subunit α, porin) in muscle, liver and BAT” value is given as “prominent increase in mitochondrial proteins”; the “mitochondrial proteins in brain or WAT” value is recorded as “such change was not observed in brain or WAT”. For the same compound, the “acetylation of SIRT1 and SIRT3 targets (FOXO1, SOD2) in skeletal muscle, liver and BAT” value in the assay on C57Bl/6J mice (HFD 16 weeks, NR 400 mg/kg/day) is reported as “prominent deacetylation”. In the assay with C57Bl/6J mice (NR 400 mg/kg/day), the “acetylation status of the SIRT2 target tubulin” value is recorded as “could not detect changes”.

The values above are taken from patent US10709724B2, “Methods of treating mitochondrial dysfunction” (Ecole Polytechnique Federale de Lausanne (EPFL), priority 2011, dated 2020).
